Reference: ChEMBL document CHEMBL4325823 (Medchemcomm, 2018)
Each block holds one compound with its values, some of them ahead of it.

Assays:
[1] = biological target: Beta-lactamase (Acinetobacter baumannii, UniProt Q8RLA6); experiment: Inhibition of Acinetobacter baumannii OXA-24
[2] = tested on: Acinetobacter baumannii; experiment: Inhibition of beta lactamase in Acinetobacter baumannii assessed as potentiation of imipenem-induced antibacterial activity by measuring fold reduction in imipenem MIC at 4 ug/ml
[3] = tested on: Acinetobacter baumannii; experiment: Inhibition of beta lactamase in Acinetobacter baumannii assessed as potentiation of sulbactam-induced antibacterial activity by measuring sulbactam MIC90 at 4 ug/ml (reference value: 64 ug/ml)
[4] = tested on: Pseudomonas aeruginosa; experiment: Inhibition of beta lactamase KPC in imipenem-resistant Pseudomonas aeruginosa clinical isolate assessed as potentiation of imipenem-induced antibacterial activity by measuring imipenem MIC90 at 4 ug/ml (reference value: 8 ug/ml)
[5] = tested on: Pseudomonas aeruginosa; experiment: Inhibition of ESBL in Pseudomonas aeruginosa clinical isolate assessed as potentiation of imipenem-induced antibacterial activity by measuring imipenem MIC at 4 ug/ml
[6] = tested on: Escherichia coli; experiment: Inhibition of ESBL in Escherichia coli clinical isolate assessed as potentiation of imipenem-induced antibacterial activity by measuring imipenem MIC at 4 ug/ml
[7] = tested on: Klebsiella pneumoniae; experiment: Inhibition of beta lactamase KPC in Klebsiella pneumoniae clinical isolate assessed as potentiation of imipenem-induced antibacterial activity by measuring imipenem MIC50 at 4 ug/ml (Rvb >16 ug/ml)
[8] = tested on: Enterobacter sp.; experiment: Inhibition of ESBL in Enterobacter sp. clinical isolate assessed as potentiation of imipenem-induced antibacterial activity by measuring imipenem MIC at 4 ug/ml
[9] = tested on: Klebsiella pneumoniae; experiment: Inhibition of beta lactamase KPC in Klebsiella pneumoniae clinical isolate assessed as potentiation of imipenem-induced antibacterial activity by measuring imipenem MIC90 at 4 ug/ml (reference value: 16 ug/ml)
[10] = tested on: Klebsiella pneumoniae; experiment: Inhibition of ESBL in Klebsiella pneumoniae clinical isolate assessed as potentiation of imipenem-induced antibacterial activity by measuring imipenem MIC at 4 ug/ml
[11] = tested on: Pseudomonas aeruginosa; experiment: Inhibition of beta lactamase KPC in imipenem-resistant Pseudomonas aeruginosa clinical isolate assessed as potentiation of imipenem-induced antibacterial activity by measuring imipenem MIC50 at 4 ug/ml (Rvb >16 ug/ml)
[12] = tested on: Enterobacteriaceae; experiment: Inhibition of ESBL in Enterobacteriaceae assessed as potentiation of cefepime-induced antibacterial activity by measuring cefepime MIC by broth microdilution method
[13] = Binding affinity to Zn2+ by isothermal calorimetric method
[14] = Inhibition of bacterial VIM2 expressed in Escherichia coli BL21(DE3) using nitrocefin as substrate measured after 5 to 10 mins; parameters: species or system Bacteria
[15] = Inhibition of bacterial NDM1 expressed in Escherichia coli BL21(DE3) using nitrocefin as substrate measured after 5 to 10 mins; parameters: species or system Bacteria
[16] = tested on: Enterobacteriaceae; experiment: Inhibition of plasmid-encoded Ampc in Enterobacteriaceae assessed as potentiation of cefepime-induced antibacterial activity by measuring cefepime MIC at 1:1 ratio of test compound to cefepime by broth microdilution method
[17] = tested on: Klebsiella sp.; experiment: Inhibition of ESBL in Klebsiella sp. assessed as potentiation of cefepime-induced antibacterial activity by measuring fold reduction in cefepime MIC at 1:1 ratio of test compound to cefepime by […] method
[18] = tested on: Enterobacteriaceae; experiment: Inhibition of derepressed beta-lactamase AmpC mutant in Enterobacteriaceae assessed as potentiation of cefepime-induced antibacterial activity by measuring cefepime MIC at 1:1 ratio of test compound to cefepime by broth microdilution method
[19] = tested on: Enterobacteriaceae; experiment: Inhibition of SHV in Enterobacteriaceae assessed as potentiation of cefepime-induced antibacterial activity by measuring cefepime MIC at 1:1 ratio of test compound to cefepime by broth microdilution method
[20] = tested on: Enterobacteriaceae; experiment: Inhibition of KPC in Enterobacteriaceae assessed as potentiation of cefepime-induced antibacterial activity by measuring cefepime MIC at 1:1 ratio of test compound to cefepime by broth microdilution method
[21] = biological target: Beta-lactamase OXA-23 (Acinetobacter baumannii) (UniProt Q9L4P2); experiment: Inhibition of beta-lactamase OXA-23 in Acinetobacter baumannii ST2 assessed as potentiation of cefepime-induced antibacterial activity by measuring cefepime MIC at 8 ug/ml
Chain of Beta-lactamase OXA-23 (Acinetobacter baumannii) (Q9L4P2 whole entry): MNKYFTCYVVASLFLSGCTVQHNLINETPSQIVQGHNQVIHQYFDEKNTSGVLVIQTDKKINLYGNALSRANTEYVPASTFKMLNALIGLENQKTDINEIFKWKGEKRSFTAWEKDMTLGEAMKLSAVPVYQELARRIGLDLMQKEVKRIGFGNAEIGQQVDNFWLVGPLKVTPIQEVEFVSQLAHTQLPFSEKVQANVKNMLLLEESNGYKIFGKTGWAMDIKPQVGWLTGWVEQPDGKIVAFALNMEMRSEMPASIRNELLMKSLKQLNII

[22] = tested on: Enterobacteriaceae; experiment: Inhibition of CTX-M-15 in Enterobacteriaceae assessed as potentiation of cefepime-induced antibacterial activity by measuring cefepime MIC at 1:1 ratio of test compound to cefepime by broth microdilution method
[23] = tested on: Enterobacteriaceae; experiment: Inhibition of beta lactamase in Enterobacteriaceae clinical isolate assessed as potentiation of cefepime-induced antibacterial activity by measuring cefepime MIC at 1:1 ratio of test compound to cefepime by microarray-based method
[24] = tested on: Escherichia coli; experiment: Inhibition of ESBL in Escherichia coli clinical isolate assessed as potentiation of cefepime-induced antibacterial activity by measuring fold reduction in cefepime MIC at 1:1 ratio of test compound to cefepime by […] method
[25] = tested on: Enterobacteriaceae; experiment: Inhibition of ESBL in Enterobacteriaceae assessed as potentiation of cefepime-induced antibacterial activity by measuring cefepime MIC at 1:1 ratio of test compound to cefepime by broth microdilution method
[26] = tested on: Acinetobacter sp.; experiment: Inhibition of beta lactamase in Acinetobacter sp. assessed as potentiation of cefepime-induced antibacterial activity by measuring cefepime MIC at 1:1 ratio of test compound to cefepime by microarray based method
[27] = tested on: Enterobacteriaceae; experiment: Inhibition of carbapenemase in Enterobacteriaceae clinical isolate assessed as potentiation of cefepime-induced antibacterial activity by measuring fold reduction in cefepime MIC at 1:1 ratio of test compound to cefepime by microarray-based method
[28] = tested on: Pseudomonas aeruginosa; experiment: Inhibition of beta lactamase in Pseudomonas aeruginosa assessed as potentiation of cefepime-induced antibacterial activity by measuring cefepime MIC at 1:1 ratio of test compound to cefepime by microarray based method
[29] = tested on: Enterobacteriaceae; experiment: Inhibition of metallo-beta-lactamase in Enterobacteriaceae assessed as potentiation of cefepime-induced antibacterial activity by measuring cefepime MIC at 1:1 ratio of test compound to cefepime by broth microdilution method
[30] = biological target: Beta-lactamase OXA-23 (Acinetobacter baumannii) (UniProt Q9L4P2); experiment: Inhibition of beta-lactamase OXA-23 in Acinetobacter baumannii ST2 assessed as potentiation of sulbactam-induced antibacterial activity by measuring sulbactam MIC at 8 ug/ml
[31] = Inhibition of bacterial NDM1; parameters: species or system Bacteria
[32] = tested on: Enterobacteriaceae; experiment: Inhibition of beta lactamase CTX-M-14 in CTX-M-15 deficient Enterobacteriaceae assessed as potentiation of ceftazidime-induced antibacterial activity by measuring ceftazidime MIC by broth microdilution method
[33] = tested on: Enterobacteriaceae; experiment: Inhibition of beta lactamase KPC in Enterobacteriaceae assessed as potentiation of ceftazidime-induced antibacterial activity by measuring ceftazidime MIC by broth microdilution method
[34] = tested on: Enterobacteriaceae; experiment: Inhibition of beta lactamase SHV in Enterobacteriaceae assessed as potentiation of ceftazidime-induced antibacterial activity by measuring ceftazidime MIC by broth microdilution method
[35] = tested on: Enterobacteriaceae; experiment: Inhibition of beta lactamase CTX-M-15 in KPC/NDM1 deficient Enterobacteriaceae assessed as potentiation of ceftazidime-induced antibacterial activity by measuring ceftazidime MIC by broth microdilution method
[36] = tested on: Enterobacteriaceae; experiment: Inhibition of beta lactamase CMY-2 in CTX-M-15/CTX-M-14/KPC/NDM1 deficient Enterobacteriaceae assessed as potentiation of ceftazidime-induced antibacterial activity by measuring ceftazidime MIC by broth microdilution method
[37] = tested on: Pseudomonas aeruginosa; experiment: Inhibition of beta lactamase in Pseudomonas aeruginosa assessed as potentiation of ceftazidime-induced antibacterial activity by measuring ceftazidime MIC at 4 ug/ml (reference value: 64 ug/ml)
[38] = tested on: Pseudomonas aeruginosa; experiment: Inhibition of beta lactamase in Pseudomonas aeruginosa assessed as potentiation of imipenem-induced antibacterial activity by measuring […] MIC at 4 ug/ml (reference value: 16 ug/ml)

Chain of Beta-lactamase (Q8RLA6 whole entry): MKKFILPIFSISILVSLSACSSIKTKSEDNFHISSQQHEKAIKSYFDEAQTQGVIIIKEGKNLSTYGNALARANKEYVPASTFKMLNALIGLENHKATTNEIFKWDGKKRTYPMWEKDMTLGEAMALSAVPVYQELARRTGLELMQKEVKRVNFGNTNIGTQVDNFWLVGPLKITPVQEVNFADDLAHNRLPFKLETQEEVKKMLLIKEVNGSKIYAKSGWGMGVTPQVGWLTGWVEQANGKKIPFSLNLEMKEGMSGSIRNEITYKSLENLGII

Structure (SMILES): O=C(NC1CCNCC1)[C@@H]1CC[C@@H]2CN1C(=O)N2OS(=O)(=O)O
- MIC90 [4]: 1 µg/mL
- MIC50 [5]: 2 µg/mL
- MIC90 [5]: 0.5 µg/mL
- MIC50 [6]: 0.25 µg/mL
- MIC90 [6]: 0.25 µg/mL
- MIC50 [7]: 1 µg/mL
- MIC50 [8]: 0.5 µg/mL
- MIC90 [8]: 0.25 µg/mL
- MIC90 [9]: 0.25 µg/mL
- MIC50 [10]: 0.25 µg/mL
- MIC90 [10]: 0.25 µg/mL
- MIC50 [11]: 2 µg/mL

Structure (SMILES): N[C@@H](CN[C@@H](CN[C@@H](CC(=O)O)C(=O)O)C(=O)O)C(=O)O
- Kd [13]: 200 nM
- IC50 [14]: 9600 nM
- IC50 [15]: 4000 nM

Structure (SMILES): O=C(NNC(=O)[C@@H]1CC[C@@H]2CN1C(=O)N2OS(=O)(=O)O)[C@@H]1CCCNC1
- MIC90 [16]: < 0.06 µg/mL
- fold change (FC) [17]: 16
- MIC90 [18]: 0.5 µg/mL
- MIC90 [19]: 0.25 µg/mL
- MIC90 [20]: 1 µg/mL
- fold change (FC) [21]: 4
- MIC90 [22]: 1 µg/mL
- MIC90 [23]: 0.12 µg/mL
- fold change (FC) [24]: 16
- MIC90 [25]: 1 µg/mL
- MIC90 [26]: 32 µg/mL
- fold change (FC) [27]: 16
- MIC90 [28]: 4 µg/mL
- MIC90 [29]: 8 µg/mL
- fold change (FC) [30]: 8

Structure (SMILES): CC(C)c1cccc2c(-c3ccc(Cn4cccn4)cc3)c(C(=O)O)[nH]c12
- IC50 [31]: 0.5 nM

Structure (SMILES): CC(C)c1cccc2c(-c3ccc(S(=O)(=O)N(C)C)cc3)c(C(=O)O)[nH]c12
- IC50 [31]: 0.35 nM

Other lines, results leading:

- IC50 [1]: 685 nM
- fold change (FC) [2]: 8
- MIC90 [3]: 4 µg/mL
Structure (SMILES): CC1=C[C@@H]2CN(C(=O)N2OS(=O)(=O)O)[C@@H]1C(N)=O [DURLOBACTAM]

- MIC50 [12]: 0.125 µg/mL
- MIC90 [12]: 0.5 µg/mL
Structure (SMILES): Cn1cc[n+](C[C@@]2(C)[C@H](C(=O)[O-])N3C(=O)C[C@H]3S2(=O)=O)n1

- MIC90 [32]: < 2 µg/mL
- MIC90 [33]: < 2 µg/mL
- MIC90 [34]: < 2 µg/mL
- MIC90 [35]: < 2 µg/mL
- MIC90 [36]: < 2 µg/mL
- MIC90 [37]: 8 µg/mL
- MIC90 [38]: 2 µg/mL
Structure (SMILES): NC(=O)[C@@H]1CC[C@@H]2CN1C(=O)N2OS(=O)(=O)O
